What was measured:
human mGluR1 = human mGluR1 (Homo sapiens (Human), UniProt Q13255); experiment: mGluR1 antagonism, L-glutamate induced intracellular calcium increase (FLIPR) in CHO cells stably expressing human mGluR1; type: cell-based; conditions: L-glutamate induced intracellular calcium, CHO cells expressing human mGluR1, FLIPR
human mGluR5a receptors = human mGluR5a receptors (Homo sapiens (Human), UniProt P41594); experiment: inhibition of glutamate-induced elevation of intracellular calcium in L(tk-) cells expressing human mGluR5a; type: cell-based; conditions: for IC50: glutamate-induced intracellular calcium elevation, L(tk-) cells expressing human mGluR5a, read-out: mGluR5 IC50; for inhibition at 2 µM: LTK, read-out: mGluR5 % inhibition at 2 μM
Procedure, shortened: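 Compounds tested for inhibition of the glutamate-induced rise in intracellular calcium concentration in L(tk-) cells stably expressing human mGluR5a.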

Chain of human mGluR5a receptors (P41594 other isoform, or with tags, fused parts or gaps): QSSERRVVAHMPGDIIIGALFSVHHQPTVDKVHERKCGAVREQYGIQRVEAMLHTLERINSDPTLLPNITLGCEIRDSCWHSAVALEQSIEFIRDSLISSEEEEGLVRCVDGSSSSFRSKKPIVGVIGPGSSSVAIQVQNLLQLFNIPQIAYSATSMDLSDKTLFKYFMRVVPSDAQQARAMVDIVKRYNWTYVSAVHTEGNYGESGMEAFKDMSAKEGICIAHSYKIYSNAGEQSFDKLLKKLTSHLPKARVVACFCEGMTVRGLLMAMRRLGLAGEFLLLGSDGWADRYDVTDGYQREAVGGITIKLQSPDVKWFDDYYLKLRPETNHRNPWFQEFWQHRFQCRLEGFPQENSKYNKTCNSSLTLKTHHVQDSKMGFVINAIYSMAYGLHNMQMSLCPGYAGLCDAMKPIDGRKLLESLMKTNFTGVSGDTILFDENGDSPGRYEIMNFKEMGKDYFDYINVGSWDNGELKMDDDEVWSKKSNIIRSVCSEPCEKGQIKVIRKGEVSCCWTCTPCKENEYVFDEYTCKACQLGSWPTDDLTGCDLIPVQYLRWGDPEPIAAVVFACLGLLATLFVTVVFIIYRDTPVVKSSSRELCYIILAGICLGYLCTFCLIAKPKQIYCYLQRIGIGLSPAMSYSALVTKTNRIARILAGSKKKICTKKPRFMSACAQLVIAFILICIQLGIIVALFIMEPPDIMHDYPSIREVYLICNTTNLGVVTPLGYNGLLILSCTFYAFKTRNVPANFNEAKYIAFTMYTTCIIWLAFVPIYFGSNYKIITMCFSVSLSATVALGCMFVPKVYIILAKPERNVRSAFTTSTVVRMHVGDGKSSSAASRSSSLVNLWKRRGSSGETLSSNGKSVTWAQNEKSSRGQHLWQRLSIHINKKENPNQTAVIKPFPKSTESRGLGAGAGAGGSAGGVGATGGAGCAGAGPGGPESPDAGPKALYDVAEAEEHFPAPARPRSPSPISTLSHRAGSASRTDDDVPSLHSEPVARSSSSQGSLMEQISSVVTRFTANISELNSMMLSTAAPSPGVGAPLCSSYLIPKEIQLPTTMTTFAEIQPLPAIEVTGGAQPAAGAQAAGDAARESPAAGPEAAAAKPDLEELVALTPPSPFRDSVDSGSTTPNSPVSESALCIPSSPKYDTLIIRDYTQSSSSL
Chain of human mGluR1 (Q13255 19-1194): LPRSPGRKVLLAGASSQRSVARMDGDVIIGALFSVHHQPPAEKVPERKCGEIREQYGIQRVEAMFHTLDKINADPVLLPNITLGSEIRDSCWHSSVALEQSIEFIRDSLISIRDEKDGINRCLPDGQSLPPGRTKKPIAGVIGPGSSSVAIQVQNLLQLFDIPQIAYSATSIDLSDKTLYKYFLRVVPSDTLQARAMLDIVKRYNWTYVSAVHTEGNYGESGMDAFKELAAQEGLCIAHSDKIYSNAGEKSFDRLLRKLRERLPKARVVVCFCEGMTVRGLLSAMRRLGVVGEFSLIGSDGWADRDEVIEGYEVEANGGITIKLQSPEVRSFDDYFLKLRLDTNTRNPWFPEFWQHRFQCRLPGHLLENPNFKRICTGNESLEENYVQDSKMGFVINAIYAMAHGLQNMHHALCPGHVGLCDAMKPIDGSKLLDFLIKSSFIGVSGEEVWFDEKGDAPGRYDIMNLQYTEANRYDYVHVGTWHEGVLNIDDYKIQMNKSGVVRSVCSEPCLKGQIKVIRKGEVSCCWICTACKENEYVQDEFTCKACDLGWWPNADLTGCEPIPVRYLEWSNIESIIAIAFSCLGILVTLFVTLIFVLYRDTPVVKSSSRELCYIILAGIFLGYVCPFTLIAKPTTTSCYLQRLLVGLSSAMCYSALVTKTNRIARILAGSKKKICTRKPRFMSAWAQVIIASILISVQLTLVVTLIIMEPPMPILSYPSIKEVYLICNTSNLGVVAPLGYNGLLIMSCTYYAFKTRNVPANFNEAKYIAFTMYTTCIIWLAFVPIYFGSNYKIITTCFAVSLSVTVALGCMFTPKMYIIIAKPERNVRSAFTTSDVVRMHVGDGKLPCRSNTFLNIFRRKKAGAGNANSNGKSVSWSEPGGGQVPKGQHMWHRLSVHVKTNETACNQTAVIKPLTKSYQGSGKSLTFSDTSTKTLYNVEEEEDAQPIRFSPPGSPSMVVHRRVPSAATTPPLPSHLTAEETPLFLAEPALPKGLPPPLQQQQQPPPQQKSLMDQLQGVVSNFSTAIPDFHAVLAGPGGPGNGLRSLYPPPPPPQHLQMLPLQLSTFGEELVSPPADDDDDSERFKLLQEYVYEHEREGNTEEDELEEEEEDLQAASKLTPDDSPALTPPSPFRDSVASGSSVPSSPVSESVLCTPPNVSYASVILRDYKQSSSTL

SMILES	IC50 (human mGluR1) [nM]	IC50 (human mGluR5a receptors) [nM]	inhibition at 2 µM (human mGluR5a receptors) [%]
COCc1cn(C2=NCC(=O)N3CCc4c(ccc(F)c4C4CC4)C3=C2)cn1 [Example 96-2, 9-cyclopropyl-10-fluoro-2-(4-(methoxymethyl)-1H-imidazol-1-yl)-7,8-dihydro-[1,4]diazepino[7,1-a]isoquinolin-5(4H)-one]	289	2	–
O=C1CN=C(n2cnc(C3CC3)c2)C=C2c3cccc(-c4cccnc4F)c3CCN12 [Example 97, 2-(4-cyclopropyl-1H-imidazol-1-yl)-9-(2-fluoropyridin-3-yl)-7,8-dihydro-[1,4]diazepino[7,1-a]isoquinolin-5(4H)-one]	5900	37	–
O=C1CN=C(n2cnc(C3CCC3)c2)C=C2c3cccc(-c4cccnc4F)c3CCN12 [Example 98, 2-(4-cyclobutyl-1H-imidazol-1-yl)-9-(2-fluoropyridin-3-yl)-7,8-dihydro-[1,4]diazepino[7,1-a]isoquinolin-5(4H)-one]	2400	14	–
O=C1CN=C(n2cnc(C3CC3)c2)C=C2c3cccc(-c4ccc(F)nc4F)c3CCN12 [Example 99, 2-(4-cyclopropyl-1H-imidazol-1-yl)-9-(2,6-difluoropyridin-3-yl)-7,8-dihydro-[1,4]diazepino[7,1-a]isoquinolin-5(4H)-one]	> 2000	83	–
Cc1cn(C2=NCC(=O)N3CCc4c(cccc4-c4cnc(C)o4)C3=C2)cn1 [Example 99a, 2-(4-methyl-1H-imidazol-1-yl)-9-(2-methyloxazol-5-yl)-7,8-dihydro-[1,4]diazepino[7,1-a]isoquinolin-5(4H)-one]	> 10000	77	–
O=C1CN=C(n2cnc(C3CC3)c2)C=C2c3cccc(-c4cc(C(F)(F)F)n[nH]4)c3CCN12 [Example 99b, 2-(4-cyclopropyl-1H-imidazol-1-yl)-9-(3-(trifluoromethyl)-1H-pyrazol-5-yl)-7,8-dihydro-[1,4]diazepino[7,1-a]isoquinolin-5(4H)-one]	> 10000	–	41
O=C1CN=C(n2cnc(C3CC3)c2)C=C2c3cccc(-c4ccc(O)nc4)c3CCN12 [Example 99c, 2-(4-cyclopropyl-1H-imidazol-1-yl)-9-(6-hydroxypyridin-3-yl)-7,8-dihydro-[1,4]diazepino[7,1-a]isoquinolin-5(4H)-one]	> 10000	–	31
COc1ccc(-c2cccc3c2CCN2C(=O)CN=C(n4cnc(C5CC5)c4)C=C32)cn1 [Example 99d, 2-(4-cyclopropyl-1H-imidazol-1-yl)-9-(6-methoxypyridin-3-yl)-7,8-dihydro-[1,4]diazepino[7,1-a]isoquinolin-5(4H)-one]	> 2000	347	–
O=C1CN=C(n2cnc(C3CC3)c2)C=C2c3cccc(-c4cc[nH]n4)c3CCN12 [Example 99e, 2-(4-cyclopropyl-1H-imidazol-1-yl)-9-(1H-pyrazol-3-yl)-7,8-dihydro-[1,4]diazepino[7,1-a]isoquinolin-5(4H)-one]	8260	127	–
O=C1CN=C(n2cnc(C3CC3)c2)C=C2c3cccc(-c4cnc(F)nc4)c3CCN12 [Example 99f, 2-(4-cyclopropyl-1H-imidazol-1-yl)-9-(2-fluoropyrimidin-5-yl)-7,8-dihydro-[1,4]diazepino[7,1-a]isoquinolin-5(4H)-one]	12000	102	–
O=C1CN=C(n2cnc(C3CC3)c2)C=C2c3cccc(-c4ccnc(F)c4)c3CCN12 [Example 99g, 2-(4-cyclopropyl-1H-imidazol-1-yl)-9-(2-fluoropyridin-4-yl)-7,8-dihydro-[1,4]diazepino[7,1-a]isoquinolin-5(4H)-one]	18200	220	–
COCc1cn(C2=NCC(=O)N3CCc4c(C5CC5)ccc(F)c4C3=C2)cn1 [Example 99i, 9-cyclopropyl-12-fluoro-2-(4-(methoxymethyl)-1H-imidazol-1-yl)-7,8-dihydro-[1,4]diazepino[7,1-a]isoquinolin-5(4H)-one]	687	16	–
CO[C@H](C)c1cn(C2=NCC(=O)N3CCc4c(C5CC5)ccc(F)c4C3=C2)cn1 [Example 99j, (R)-9-cyclopropyl-12-fluoro-2-(4-(1-methoxyethyl)-1H-imidazol-1-yl)-7,8-dihydro-[1,4]diazepino[7,1-a]isoquinolin-5(4H)-one]	3210	7	–
COCc1cn(C2=NCC(=O)N3CCc4c(cc(F)cc4C4CC4)C3=C2)cn1 [Example 99k, 9-cyclopropyl-11-fluoro-2-(4-(methoxymethyl)-1H-imidazol-1-yl)-7,8-dihydro-[1,4]diazepino[7,1-a]isoquinolin-5(4H)-one]	561	3	–
O=C1CN=C(n2cnc(C(F)F)c2)C=C2c3cccc(C4CC4)c3CCN12 [Example 99l, 9-cyclopropyl-2-(4-(difluoromethyl)-1H-imidazol-1-yl)-7,8-dihydro-[1,4]diazepino[7,1-a]isoquinolin-5(4H)-one]	702	2	–
O=C1CN=C(n2cnc(CF)c2)C=C2c3cccc(C4CC4)c3CCN12 [Example 99m, 9-cyclopropyl-2-(4-(fluoromethyl)-1H-imidazol-1-yl)-7,8-dihydro-[1,4]diazepino[7,1-a]isoquinolin-5(4H)-one]	672	2	–
CO[C@H](C)c1cn(C2=NCC(=O)N3CCc4c(ccc(F)c4C4CC4)C3=C2)cn1 [Example 99n, (R)-9-cyclopropyl-10-fluoro-2-(4-(1-methoxyethyl)-1H-imidazol-1-yl)-7,8-dihydro-[1,4]diazepino[7,1-a]isoquinolin-5(4H)-one]	2080	6	–
Cc1ncn(C2=NCC(=O)N3CCc4c(ccc(F)c4-c4ccc(F)nc4)C3=C2)n1 [Example 99o, 10-fluoro-9-(6-fluoropyridin-3-yl)-2-(3-methyl-1H-1,2,4-triazol-1-yl)-7,8-dihydro-[1,4]diazepino[7,1-a]isoquinolin-5(4H)-one]	> 10000	50	–
COCc1ncn(C2=NCC(=O)N3CCc4c(ccc(F)c4C4CC4)C3=C2)n1 [Example 99p, 9-cyclopropyl-10-fluoro-2-(3-(methoxymethyl)-1H-1,2,4-triazol-1-yl)-7,8-dihydro-[1,4]diazepino[7,1-a]isoquinolin-5(4H)-one]	814	2	–
O=C1CN=C(n2cnc(C3CC3)n2)C=C2c3ccc(F)c(-c4cccnc4F)c3CCN12 [Example 99q, 2-(3-cyclopropyl-1H-1,2,4-triazol-1-yl)-10-fluoro-9-(2-fluoropyridin-3-yl)-7,8-dihydro-[1,4]diazepino[7,1-a]isoquinolin-5(4H)-one]	> 6000	88	–
Cc1ncn(C2=NCC(=O)N3CCc4c(ccc(F)c4-c4cccnc4F)C3=C2)n1 [Example 99r, 10-fluoro-9-(2-fluoropyridin-3-yl)-2-(3-methyl-1H-1,2,4-triazol-1-yl)-7,8-dihydro-[1,4]diazepino[7,1-a]isoquinolin-5(4H)-one]	> 10000	136	–
Cc1cn(C2=NCC(=O)N3CCc4c(ccc(F)c4-c4cccnc4F)C3=C2)cn1 [Example 99s, 10-fluoro-9-(2-fluoropyridin-3-yl)-2-(4-methyl-1H-imidazol-1-yl)-7,8-dihydro-[1,4]diazepino[7,1-a]isoquinolin-5(4H)-one]	> 10000	153	–
O=C1CN=C(n2cnc(C3CC3)c2)C=C2c3cccc(-c4ccno4)c3CCN12 [Example 100, 2-(4-cyclopropyl-1H-imidazol-1-yl)-9-(isoxazol-5-yl)-7,8-dihydro-[1,4]diazepino[7,1-a]isoquinolin-5(4H)-one]	560	19	–
COCc1cn(C2=NCC(=O)N3CCc4c(cccc4-c4cscn4)C3=C2)cn1 [Example 101, 2-(4-(methoxymethyl)-1H-imidazol-1-yl)-9-(thiazol-4-yl)-7,8-dihydro-[1,4]diazepino[7,1-a]isoquinolin-5(4H)-one]	> 10000	26	–
CCc1ncn(C2=NCC(=O)N3CCc4c(cccc4-c4ccc(F)nc4)C3=C2)n1 [Example 102, 2-(3-ethyl-1H-1,2,4-triazol-1-yl)-9-(6-fluoropyridin-3-yl)-7,8-dihydro-[1,4]diazepino[7,1-a]isoquinolin-5(4H)-one]	> 10000	16	–
Cc1cc(-c2cccc3c2CCN2C(=O)CN=C(n4cnc(C5CC5)c4)C=C32)sn1 [Example 103, 2-(4-cyclopropyl-1H-imidazol-1-yl)-9-(3-methylisothiazol-5-yl)-7,8-dihydro-[1,4]diazepino[7,1-a]isoquinolin-5(4H)-one]	> 10000	18	–
O=C1CN=C(n2cnc(C3CC3)c2)C=C2c3cccc(-c4ncco4)c3CCN12 [Example 104, 2-(4-cyclopropyl-1H-imidazol-1-yl)-9-(oxazol-2-yl)-7,8-dihydro-[1,4]diazepino[7,1-a]isoquinolin-5(4H)-one]	1300	7	–
C#Cc1cn(C2=NCC(=O)N3CCc4c(cccc4-c4cscn4)C3=C2)cn1 [Example 105, 2-(4-ethynyl-1H-imidazol-1-yl)-9-(thiazol-4-yl)-7,8-dihydro-[1,4]diazepino[7,1-a]isoquinolin-5(4H)-one]	> 10000	122	–
O=C1CN=C(n2cnc(-c3ncco3)c2)C=C2c3cccc(-c4cccnc4F)c3CCN12 [Example 106, 9-(2-fluoropyridin-3-yl)-2-(4-(oxazol-2-yl)-1H-imidazol-1-yl)-7,8-dihydro-[1,4]diazepino[7,1-a]isoquinolin-5(4H)-one]	> 10000	182	–
COC1(c2cn(C3=NCC(=O)N4CCc5c(cccc5-c5ccc(F)nc5)C4=C3)cn2)CC1 [Example 106a, 9-(6-fluoropyridin-3-yl)-2-(4-(1-methoxycyclopropyl)-1H-imidazol-1-yl)-7,8-dihydro-[1,4]diazepino[7,1-a]isoquinolin-5(4H)-one]	> 10000	68	–
